Marks after values point to notes of the source that are not given here.
Columns and labels:
[1] = system: OAB Wet patients (subjects with a diagnosis of overactive bladder); experiment: Clinical Study 1: multicentre trial, diary record of urgency episodes and severity of urgency (VAS); type: in vivo, human; details: for No of episodes of urgency/day, Median change from baseline / No of episodes of urgency/day, Median % Change from baseline: 12 weeks of treatment; for No of episodes of urgency/day, Median change from baseline: placebo −1.2; for No of episodes of urgency/day, Median % Change from baseline: placebo −15.7; for No of episodes of urgency/day, Median difference from placebo / Severity of urgency/day, Median difference from placebo: corrected for placebo; for No of episodes of urgency/day, Median difference from placebo / Severity of urgency/day, Median change from baseline / Severity of urgency/day, Median difference from placebo: 12 weeks; for Severity of urgency/day, Median change from baseline: visual analogue scale (mild to severe), placebo −3.9; for Severity of urgency/day, Median difference from placebo: visual analogue scale
Procedure: Two novel methods for the assessment of urgency were used. The first was for use in a large scale clinical trial, and the second was for use in clinical laboratory studies. In both of these studies, darifenacin was administered as its hydrobromide salt. It was presented in slow release matrix tablets of the type described in U.S. Pat. No. 6,106,864, particularly Example 3. Tablets were administered once daily (o.d.). In this study, OAB Wet patients recorded each episode of urgency per day and the overall severity of urgency for each day in a diary. The severity of urgency was recorded by the use of a visual analogue scale (VAS) where the anchor points were mild and severe. Darifenacin (as hydrobromide salt; 7.5 mg, 15 mg and 30 mg of the active moiety, o.d.) and placebo were evaluated in subjects with a diagnosis of overactive bladder in a multicentre trial and symptoms of urgency were assessed using the VAS at baseline and at the end of the study (12 weeks of treatment). 108 patients (14 male, 94 female) received 7.5 mg; 107 patients (15 male, 92 female) received 15 mg; 114 patients (16 male, 98 female) received 30 mg; and 108 patients (18 male, 90 female) received placebo.

[2] = system: subjects with symptoms of urgency (mixture of OAB Wet and OAB Dry sufferers); experiment: Clinical Study 2: warning time between onset of urgency and need to micturate, measured with a modified stop-watch; type: in vivo, human
Procedure: Two novel methods for the assessment of urgency were used. The first was for use in a large scale clinical trial, and the second was for use in clinical laboratory studies. In both of these studies, darifenacin was administered as its hydrobromide salt. It was presented in slow release matrix tablets of the type described in U.S. Pat. No. 6,106,864, particularly Example 3. Tablets were administered once daily (o.d.). This study used a novel method for measuring the time between the first onset of the urgency and the need to micturate, which is known as the ‘warning time’. A modified stop-watch was used which required the subject to press a button at the onset of urge and a second button when they felt they needed to micturate. Darifenacin (as the hydrobromide salt; 30 mg o.d.) and placebo were evaluated in subjects with symptoms of urgency. The subjects were a mixture of OAB Wet and OAB Dry sufferers. The ‘warning time’ was assessed at baseline and following 2 weeks of treatment using the modified stop watch. 36 patients (29 female, 7 male) received darifenacin; and 36 patients (22 female, 14 male) received placebo.

[3] = 15 mg o.d., baseline 8.6, P < 0.05
[4] = 30 mg o.d., baseline 8.4, P < 0.001
[5] = 7.5-30 mg, effect significantly greater than that produced by placebo
[6] = 15 mg o.d., baseline 56.2, P < 0.05
[7] = 30 mg o.d., baseline 53.5, P < 0.05
[8] = 30 mg o.d., 2 weeks of treatment

NC(=O)C(c1ccccc1)(c1ccccc1)[C@@H]1CCN(CCc2ccc3c(c2)CCO3)C1 [Darifenacin, (S)-2-(1-[2-(2,3-dihydrobenzofuran-5-yl)ethyl]-3-pyrrolidinyl)-2,2-diphenyl-acetamide]
No of episodes of urgency/day, Median change from baseline ([1]; 7.5 mg o.d., baseline 8.5): −1.8 episodes of urgency/day
No of episodes of urgency/day, Median % Change from baseline ([1]; 7.5 mg o.d.): −29.2%
No of episodes of urgency/day, Median change from baseline [1, 3]: −2.3* episodes of urgency/day
No of episodes of urgency/day, Median % Change from baseline ([1]; 15 mg o.d.): −26.9%
No of episodes of urgency/day, Median change from baseline [1, 4]: −3*** episodes of urgency/day
No of episodes of urgency/day, Median % Change from baseline ([1]; 30 mg o.d.): −33.1%
Effect on number of episodes of urgency [1, 5]: dose-related reduction
Effect on overall severity of urgency [1, 5]: dose-related reduction
Effect on the symptom of urgency in subjects with overactive bladder (conclusion) ([1]; conclusion drawn from both clinical studies): clinically significant attenuation
No of episodes of urgency/day, Median difference from placebo ([1]; 7.5 mg o.d., baseline 8.5): −0.5 episodes of urgency/day
No of episodes of urgency/day, Median difference from placebo [1, 3]: −1.1* episodes of urgency/day
No of episodes of urgency/day, Median difference from placebo [1, 4]: −1.4*** episodes of urgency/day
Severity of urgency/day, Median change from baseline ([1]; 7.5 mg o.d., baseline 53.2): −7
Severity of urgency/day, Median change from baseline [1, 6]: −7*
Severity of urgency/day, Median change from baseline [1, 7]: −9.4*
Severity of urgency/day, Median difference from placebo ([1]; 7.5 mg o.d., baseline 53.2): −2.5
Severity of urgency/day, Median difference from placebo [1, 6]: −3.8*
Severity of urgency/day, Median difference from placebo [1, 7]: −5.5*
Effect on warning time compared with placebo [2, 8]: significant increase
Warning time, Median difference from placebo [2, 8]: 4.3 min
Warning Time, Week 2 (Median) ([2]; 30 mg o.d., 2 weeks of treatment, baseline median 4.7, placebo week 2 4.1, P < 0.01): 8.4** Min
Response of OAB Wet and OAB Dry subjects ([2]; both OAB Wet and OAB Dry subjects): responded to treatment

— patent US8748476B2, “Darifenacin for use in the treatment of urgency induced by overactive bladder” (Warner Chilcott Company, LLC, priority 2002, dated 2014)
